Laboratory results taken from patent publication US6610657B1, “Alkyl peptide amides and applications” (Promega Corporation, priority 1996, dated 2003).
Blank lines part the entries; values can stand above or below the molecule they belong to. *: point of attachment. Stearyl = stearyl group; stearyl = stearyl group; sulfo = O=S(=O)(O)*

Experiments:
RII binding to AKAP 110 = assay: RII overlay assay on bovine sperm AKAP; settings: 20 μM peptide, densitometric scanning, FIG. 6
Text: Western blotting and overlay assays. The overlay procedure is a modified Western blot procedure. Proteins were separated by SDS-polyacrylamide gel electrophoresis (SDS-PAGE) and transferred to a nylon membrane (Immobilon). After treatment with Blotto (Protein Methods, Bollag and Edelstein, eds., Wiley-Liss, New York, 1991) to prevent non-specific binding, radiolabelled RIIα or RIIβ probes were applied (Carr and Scott, Trends Biochem. Sci. 17:246-249, 1992). Recombinant RIIα was produced as previously described (Carr et al., J. Biol. Chem. 266:14188-14192, 1991; Carr et al., J. Biol. Chem. 267:13376-13382, 1992). RIIα and RIIβ were gifts from Dr. John Scott, Oregon Health Sciences University, Portland, Oreg. Two different variations of the overlay assay were used. In the first variation, recombinant RII radiolabeled by incubation with the catalytic subunit of PKA and γ^32P-ATP was used. After separation from free γ^32P-ATP, the ^32P-labeled RII (500,000 CPM/10 ml blotto) was incubated with the blocked blot for four hours followed by washing and autoradiography. […]
RII overlays were performed in the absence (lane 1) or presence of 20 μM Ht31, s-Ht31, or s-Ht31-P (lanes 2, 3 or 4, respectively). Addition of the three peptide species inhibited RII binding to AKAP110 by 100%, 85% and 0%, respectively, as determined by densitometric scanning analysis.

[1] = tested on: bovine caudal epididymal sperm; assay: Bovine sperm motility (CASMA, forward motility index); assay type: cell-based
Protocol: (§1) Sperm Preparation. Testes from mature bulls with intact tunica were obtained from a local slaughterhouse and sperm from caput or caudal epididymis were isolated and washed as previously described (Vijayaraghavan et al., Biol. Reprod. 32:489-500, 1985). The sperm were resuspended in buffer A (120 mM NaCl, 10 mM KCl, 10 mM Tris[hydroxymethyl]aminomethane (TRIS), pH 7.4) supplemented with 10 mM glucose and 10 mg/ml bovine serum albumin (BSA) for motility measurements. Monkey semen was obtained by electro-ejaculation and processed by procedures previously reported (Smith et al., Biol. Reprod. 54:719-727, 1996). Human semen samples were obtained from a fertility clinic at the Oregon Health Sciences University.
(§2) Sperm Motility Measurement. Head motility parameters were determined as previously described (Vijayaraghavan et al., Biol. Reprod. 54:709-718, 1996; Stephens et al., Biol. Reprod. 38:577-586, 1988). A 3-4 μL aliquot of sperm suspension (5×10^7/ml) was loaded onto a counting chamber at 37° C. After bulk fluid movement had subsided, six different locations on the slide were recorded. The videotaped segments were analyzed by a computerized image-analysis system (CASMA) as previously described (Vijayaraghavan et al., Biol. Reprod. 54:709-718, 1996; Stephens et al., Biol. Reprod. 38:577-586, 1988). This computer system measured several parameters of head motion, including forward motility. The forward Motility Index (FMI) was used as the measure of motility. FMI is a product of percent motile (%M, percent of sperm moving at velocity greater than 20 mm/sec) and average velocity (Va, the five-point smoothed average of the head positions through analysis of at least twenty frames).

[2] = tested on: PKA in bovine caudal and caput sperm; assay: PKA activity of bovine caudal and caput sperm after treatment; assay type: cell-based; settings: 50 μM
Protocol: PKA Activity. PKA activity was assayed as previously described (Carr et al., J. Biol. Chem. 268:20729-20732, 1993) with minor changes. Whole caput or caudal sperm were treated with 2-chloro-2′-deoxyadenosine (50 μM), H-89 (50 μM), or both for 30 min. at 37° C. The sperm were then washed twice in ice cold homogenization buffer supplemented with protease inhibitors, benzamidine (10 mM), leupeptin (4 μg/ml), and N-tosyl-L-phenylalanine chloromethyl ketone (TPCK) (100 μM), and sonicated for one min. Reaction mixtures (20 microliters (μl) total) contained 250 μM Kemptide (i.e., LRRASLG), 250 μM (γ^32P) ATP, 25 mM Na3VO4, 50 mM 3-[N-morpholino] propanesulfonic acid (MOPS) (pH=7.0), 10 mM MgCl2, 0.25 mg/ml BSA and where indicated, 10 μM cAMP. Assays were initiated by addition of labeled ATP, incubated for 2 min at 30° C., and stopped by addition of 30 μl of 1 N HCl. Twenty μl of the reaction was then spotted on phosphocellulose paper followed by three washes in 75 mM phosphoric acid. The papers were then analyzed by Cerenkov counting. All determinations were made in quadruplicate.
In previous reports, initiation or stimulation of sperm motility by CDA was associated with an elevation of cAMP and an increase in PKA activity was assumed (Vijayaraghavan and Hoskins, Biol. Reprod. 34:468-77, 1986). […] Bovine sperm were incubated as described for FIGS. 14 and 15 and then assessed for PKA activity. […]

sperm = assay type: cell-based
Protocol: In the first such experiment, the vital dyes SYBR-green and rhodamine 123 were added to sperm before and after treatment with s-Ht31 in order to determine whether s-Ht31 affects sperm viability or structural integrity. Only viable, intact cells normally take up such dyes.

monkey ejaculated sperm = assay: Monkey sperm motility; assay type: cell-based, rhesus monkey; settings: increasing concentrations in neat semen, 37° C., 5 and 30 min, FIG. 11
Protocol: as §1
as §2, with “The forward Motility Index (FMI) was used as the measure of motility. FMI is a product of percent motile (%M, percent of sperm moving at velocity greater than 20 mm/sec) and average velocity (Va, the five-point smoothed average of the head positions through analysis of at least twenty frames).” left out

PP-2A = PP-2A (Homo sapiens, UniProt P67775); settings: cited from earlier work
alkaline phosphatase = settings: cited from earlier work
PP-1 = PP-1 (Homo sapiens, UniProt P62136); settings: cited from earlier work
insulin receptor = settings: intact CHO/HIRc cells; cited from earlier work
[3] = target: RII, 32P-labeled recombinant regulatory subunit of PKA (isoform not given) used as overlay probe; assay: RII overlay of bovine sperm blot with 20 µM peptide, densitometric scanning
[4] = target: endogenous RII isoforms of sperm (bands at about 55 kDa); assay: cell-based or functional assay

Sequence of PP-2A (P67775 whole entry): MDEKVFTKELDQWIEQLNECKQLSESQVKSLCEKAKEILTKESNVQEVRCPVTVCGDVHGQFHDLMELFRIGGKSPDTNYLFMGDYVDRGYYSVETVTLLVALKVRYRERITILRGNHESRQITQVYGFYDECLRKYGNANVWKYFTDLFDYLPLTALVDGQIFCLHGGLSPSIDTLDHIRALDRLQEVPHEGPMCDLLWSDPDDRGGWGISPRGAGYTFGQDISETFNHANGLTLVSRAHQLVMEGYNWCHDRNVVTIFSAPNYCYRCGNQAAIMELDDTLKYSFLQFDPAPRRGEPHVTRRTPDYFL
Sequence of PP-1 (P62136 whole entry): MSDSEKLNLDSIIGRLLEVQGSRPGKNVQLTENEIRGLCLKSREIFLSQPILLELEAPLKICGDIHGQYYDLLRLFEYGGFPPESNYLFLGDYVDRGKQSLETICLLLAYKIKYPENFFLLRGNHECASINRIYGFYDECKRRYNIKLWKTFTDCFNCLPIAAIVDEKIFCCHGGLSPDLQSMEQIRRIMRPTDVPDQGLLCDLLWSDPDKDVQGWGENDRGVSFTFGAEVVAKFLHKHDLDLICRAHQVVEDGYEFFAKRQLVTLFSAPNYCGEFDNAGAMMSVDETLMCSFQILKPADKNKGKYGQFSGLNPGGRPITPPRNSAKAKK

Inhibition of RII binding to AKAP110 (RII binding to AKAP 110): 100%
Molecule: DLIEEAASRIVDAVIEQVKAAGAY (listed as Homo sapiens) [Ht31]

Molecule: Stearyl-DLIEEAASRPVDAVPEQVKAAGAY amide (Stearyl-DLIEEAASRPVDAVPEQVKAAGAY-NH2; listed as Homo sapiens) [s-Ht31-P]
Effect on sperm motility ([1]; concentrations up to 20 μM, 5 min): no effect

Molecule: O=S(=O)(NCCNCC=Cc1ccc(Br)cc1)c1cccc2cnccc12 [H-89, N-[2-(p-bromocinnamylamino)ethyl]-5-isoquinoline-sulfonamide]
Effect on PKA activity of treated sperm ([2]; in the presence or absence of CDA, sperm washed before lysis): strongly inhibited PKA activity
Effect on sperm motility stimulated by CDA ([1]; 50 μM H-89 added 15 min prior to 50 μM CDA): no effect
inhibition at 50 µM ([1]; Bos taurus, Sperm, 0.25 h, 50 μM, 15 min, FIG. 14, read-out: Inhibition of basal sperm motility): ≤ 50%

Molecule: C[C@@H]1CC[C@@]2(OC1)O[C@H]1[C@@H](O)[C@H]3[C@@H]4CC[C@H]5C[C@@H](O[C@@H]6O[C@H](CO)[C@H](O[C@@H]7O[C@H](CO)[C@@H](O)[C@H](O[C@@H]8OC[C@@H](O)[C@H](O)[C@H]8O)[C@H]7O[C@@H]7O[C@H](CO)[C@H](O)[C@H](O[C@@H]8O[C@H](CO)[C@@H](O)[C@H](O)[C@H]8O)[C@H]7O)[C@H](O)[C@H]6O)[C@H](O)C[C@]5(C)[C@H]4CC[C@]3(C)[C@H]1[C@@H]2C [digitonin]
Release of BCECF or Fura 2 from loaded sperm (sperm): caused release of these dyes

Molecule: CCCCCCCCCCCCCCCCCC(=O)N[C@@H](CC(=O)O)C(=O)N[C@@H](CC(C)C)C(=O)N[C@H](C(=O)N[C@@H](CCC(=O)O)C(=O)N[C@@H](CCC(=O)O)C(=O)N[C@@H](C)C(=O)N[C@@H](C)C(=O)N[C@@H](CO)C(=O)N[C@@H](CCCNC(=N)N)C(=O)N[C@H](C(=O)N[C@H](C(=O)N[C@@H](CC(=O)O)C(=O)N[C@@H](C)C(=O)N[C@H](C(=O)N[C@H](C(=O)N[C@@H](CCC(=O)O)C(=O)N[C@@H](CCC(N)=O)C(=O)N[C@H](C(=O)N[C@@H](CCCCN)C(=O)N[C@@H](C)C(=O)N[C@@H](C)C(=O)NCC(=O)N[C@@H](C)C(=O)N[C@@H](Cc1ccc(O)cc1)C(=O)O)C(C)C)[C@@H](C)CC)C(C)C)C(C)C)[C@@H](C)CC)[C@@H](C)CC [s-Ht31]
Effect on sperm viability / plasma membrane integrity (uptake of SYBR-green and rhodamine 123) (sperm): did not decrease viability or disrupt the integrity of the sperm plasma membrane
Release of BCECF or Fura 2 from loaded sperm (sperm): did not compromise the integrity of the plasma membrane

Molecule: Stearyl-YETLLIETASSLVKNAIQLSIE amide (Stearyl-YETLLIETASSLVKNAIQLSIE-NH2; listed as Homo sapiens) [s-AKAP79]
Effect on motility of monkey-ejaculate sperm (monkey ejaculated sperm): inhibited sperm motility in a concentration- and time-dependent manner

Molecule: TRDIYETDYYRK-amide (Stearyl-TRDIY(sulfo)ETDY(sulfo)Y(sulfo)RK-NH2; not fully specified; printed as TRDIYETDYYRK-amide; listed as Homo sapiens)
Effect on activity of PP-2A (PP-2A): did not have an effect
Effect on activity of alkaline phosphatase (alkaline phosphatase): did not have an effect
Effect on activity of PP-1 (PP-1): did not have an effect
Increase in insulin-stimulated receptor autophosphorylation (insulin receptor): 4.5 fold

Molecule: Nc1nc(Cl)nc2c1ncn2[C@H]1C[C@H](O)[C@@H](CO)O1 [CDA, 2-chloro-2′-deoxyadenosine]
Increase of basal PKA activity ([2]; 30 min at 37° C., both caudal and caput sperm): approximately 60%

percent inhibition of RII binding to AKAP110 [3]: 85%
concentration of s-Ht31 needed to produce 50% inhibition of bovine sperm motility, five minutes post-treatment [4]: 1 µM
Molecule: Stearyl-DLIEEAASRIVDAVIEQVKAAGAY-NH2 (not fully specified) [s-Ht31: Stearyl-… amide]

percent inhibition of RII binding to AKAP110 [3]: 100%
Molecule: DLIEEAASRIVDAVIEQVKAAGAY [Ht31 (anchor inhibiting peptide, non-stearated)]

percent inhibition of RII binding to AKAP110 [3]: 0%
Molecule: stearyl-DLIEEAASRPVDAVPEQVKAAGAY-NH2 [s-Ht31-P: Stearyl-… amide]
